Source: PMC3057186, “Identification and characterization of seven new exon 11-associated splice variants of the rat mu opioid receptor gene, OPRM1” (Molecular Pain, 2011)

Legend:
Test in all cases: [3H]DAMGO saturation binding, CHO membranes
rMOR-1H2 = molecular target: T1, rMOR-1H2 (Rattus norvegicus, UniProt D2CKI5)
T1 construct: gene Oprm1; 7 TM

rMOR-1H1 = molecular target: T2, rMOR-1H1 (Rattus norvegicus, UniProt B8Q1M0)
T2 construct: gene Oprm1; exon 11-associated transcript predicting the same protein as rMOR-1 (AUG in exon 1a)
T2 sequence (B8Q1M0 1-398): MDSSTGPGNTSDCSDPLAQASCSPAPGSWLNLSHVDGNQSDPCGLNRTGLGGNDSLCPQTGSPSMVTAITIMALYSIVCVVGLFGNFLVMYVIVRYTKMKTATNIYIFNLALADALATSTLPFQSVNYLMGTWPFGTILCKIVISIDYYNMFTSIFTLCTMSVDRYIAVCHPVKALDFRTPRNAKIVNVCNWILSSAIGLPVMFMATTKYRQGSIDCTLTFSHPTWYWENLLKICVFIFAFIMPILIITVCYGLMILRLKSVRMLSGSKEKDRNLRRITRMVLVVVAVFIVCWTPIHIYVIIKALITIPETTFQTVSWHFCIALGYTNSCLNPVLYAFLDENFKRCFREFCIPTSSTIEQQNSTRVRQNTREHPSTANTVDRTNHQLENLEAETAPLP

rMOR-1i2 = molecular target: T3, rMOR-1i2 (Rattus norvegicus, UniProt B8Q1M0)
T3 construct: gene Oprm1; exon 11-associated transcript predicting the same protein as rMOR-1 (AUG in exon 1a)
T3 sequence (B8Q1M0 1-398): as above

T1 sequence (D2CKI5 1-448): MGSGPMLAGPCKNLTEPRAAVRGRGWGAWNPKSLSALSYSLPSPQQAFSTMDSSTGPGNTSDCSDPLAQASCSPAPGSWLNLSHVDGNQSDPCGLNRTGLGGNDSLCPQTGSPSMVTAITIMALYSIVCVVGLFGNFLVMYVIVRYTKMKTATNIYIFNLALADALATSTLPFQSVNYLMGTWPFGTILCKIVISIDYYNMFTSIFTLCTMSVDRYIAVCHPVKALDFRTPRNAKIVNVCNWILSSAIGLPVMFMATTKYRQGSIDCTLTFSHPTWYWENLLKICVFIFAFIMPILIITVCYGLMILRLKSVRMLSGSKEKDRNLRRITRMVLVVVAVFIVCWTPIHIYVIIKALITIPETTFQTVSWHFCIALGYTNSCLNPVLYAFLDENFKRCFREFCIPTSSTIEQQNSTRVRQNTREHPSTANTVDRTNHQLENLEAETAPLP

For `C[C@@H](NC(=O)[C@@H](N)Cc1ccc(O)cc1)C(=O)NCC(=O)N(C)[C@@H](Cc1ccccc1)C(=O)NCCO` [DAMGO], the Kd (rMOR-1H2) was 0.37 ± 0.02 nM, the Kd (rMOR-1H1) was 0.51 ± 0.05 nM and the Kd (rMOR-1i2) was 0.36 ± 0.04 nM.
